Measurements from ChEMBL document CHEMBL4118148, “Design, synthesis and cardiovascular evaluation of some aminoisopropanoloxy derivatives of xanthone” (Bioorg Med Chem, 2018).
The source made the active and inactive calls. No cut-off for these calls is given here.

What was measured:
Rattus norvegicus [1] = test: Hypotensive activity in normotensive Wistar rat assessed as systolic blood pressure at 1 mg/kg, iv measured after 10 mins (reference value: 122.4 to 156.5 mmHg); format: functional
Rattus norvegicus [2] = test: Hypotensive activity in normotensive Wistar rat assessed as systolic blood pressure at 1 mg/kg, iv measured after 20 mins (reference value: 122.4 to 156.5 mmHg); format: functional
Rattus norvegicus [3] = test: Hypotensive activity in normotensive Wistar rat assessed as diastolic blood pressure at 1 mg/kg, iv measured after 10 mins (reference value: 88.4 to 122.7 mmHg); format: functional
Rattus norvegicus [4] = test: Cardiotoxicity in Wistar rat assessed as effect on QTC interval time at 5 mg/kg, iv measured after 15 mins (reference value: 136.7 to 146.2 ms); format: toxicity, organism-based; conditions: in vivo, 0.25 h
Rattus norvegicus [5] = test: Cardiotoxicity in Wistar rat assessed as effect on QT interval time at 5 mg/kg, iv measured after 1 min (reference value: 57.7 to 61 ms); format: toxicity, organism-based; conditions: in vivo
Rattus norvegicus [6] = test: Hypotensive activity in normotensive Wistar rat assessed as diastolic blood pressure at 1 mg/kg, iv measured after 60 mins (reference value: 88.4 to 122.7 mmHg); format: functional
Rattus norvegicus [7] = test: Hypotensive activity in normotensive Wistar rat assessed as diastolic blood pressure at 1 mg/kg, iv measured after 20 mins (reference value: 88.4 to 122.7 mmHg); format: functional
Rattus norvegicus [8] = test: Hypotensive activity in normotensive Wistar rat assessed as systolic blood pressure at 1 mg/kg, iv measured after 60 mins (reference value: 122.4 to 156.5 mmHg); format: functional
[9] = biological target: Adrenergic receptor alpha-2 (Rattus norvegicus) (UniProt P22086+P19328+P22909); test: Displacement of [3H]-clonidine from adrenergic alpha2 receptor in Wistar rat cortex at 10^-5 M incubated for 25 mins by microbeta liquid scintillation counting analysis
Rattus norvegicus [10] = test: Hypotensive activity in normotensive Wistar rat assessed as systolic blood pressure at 1 mg/kg, iv measured after 5 mins (reference value: 122.4 to 156.5 mmHg); format: functional
Rattus norvegicus [11] = test: Hypotensive activity in normotensive Wistar rat assessed as diastolic blood pressure at 5 mg/kg, iv measured after 5 mins (reference value: 86.5 to 119.4 mmHg); format: functional
Rattus norvegicus [12] = test: Hypotensive activity in normotensive Wistar rat assessed as systolic blood pressure at 1 mg/kg, iv measured after 30 mins (reference value: 122.4 to 156.5 mmHg); format: functional
[13] = biological target: Beta-1 adrenergic receptor (Rattus norvegicus, UniProt P18090); test: Displacement of [3H]-CGP-12177 from adrenergic beta1 receptor in Wistar rat cortex incubated for 60 mins by microbeta liquid scintillation counting analysis
Rattus norvegicus [14] = test: Hypotensive activity in normotensive Wistar rat assessed as diastolic blood pressure at 1 mg/kg, iv measured after 5 mins (reference value: 88.4 to 122.7 mmHg); format: functional
Rattus norvegicus [15] = test: Hypotensive activity in normotensive Wistar rat assessed as diastolic blood pressure at 5 mg/kg, iv measured after 20 mins (reference value: 86.5 to 119.4 mmHg); format: functional
Rattus norvegicus [16] = test: Hypotensive activity in normotensive Wistar rat assessed as diastolic blood pressure at 1 mg/kg, iv measured after 30 mins (reference value: 88.4 to 122.7 mmHg); format: functional
Rattus norvegicus [17] = test: Hypotensive activity in normotensive Wistar rat assessed as systolic blood pressure at 5 mg/kg, iv measured after 10 mins (reference value: 119.2 to 148.6 mmHg); format: functional
[18] = biological target: T1, Adrenergic receptor alpha-1 (Rattus norvegicus) (UniProt P15823+P23944+P43140); test: Antagonist activity at adrenergic alpha1 receptor in isolated Wistar rat aorta assessed as inhibition of […] contraction incubated for 20 mins
Rattus norvegicus [19] = test: Hypotensive activity in normotensive Wistar rat assessed as systolic blood pressure at 5 mg/kg, iv measured after 5 mins (reference value: 119.2 to 148.6 mmHg); format: functional
[20] = biological target: Beta-1 adrenergic receptor (Rattus norvegicus) (UniProt P18090); test: Displacement of [3H]-CGP-12177 from adrenergic beta1 receptor in Wistar rat cortex at 10^-5 M incubated for 60 mins by microbeta liquid scintillation counting analysis
Rattus norvegicus [21] = test: Cardiotoxicity in Wistar rat assessed as effect on QT interval time at 5 mg/kg, iv measured after 15 mins (reference value: 57.7 to 61 ms); format: toxicity, organism-based; conditions: in vivo, 0.25 h
Rattus norvegicus [22] = test: Hypotensive activity in normotensive Wistar rat assessed as reduction in systolic blood pressure at 0.5 mg/kg, iv measured over 30 mins relative to control; format: functional; design: scale not given: the % may be the effect or the level left
Rattus norvegicus [23] = test: Hypotensive activity in normotensive Wistar rat assessed as systolic blood pressure at 0.5 mg/kg, iv measured after 5 mins (reference value: 147.7 +/- 5.9 mmHg); format: functional
Rattus norvegicus [24] = test: Antiarrhythmic activity in Wistar rat assessed as inhibition of adrenaline-induced premature ventricular extrasystoles administered iv 15 mins prior to adrenaline challenge; format: functional
[25] = biological target: Beta-2 adrenergic receptor (Cavia porcellus, UniProt Q8K4Z4); test: Antagonist activity at adrenergic beta2 receptor in isolated guinea pig trachea assessed as inhibition of isoprenaline-induced bronchodilation incubated for 20 mins; format: functional; conditions: read-out: pA2 (converted)
Rattus norvegicus [26] = test: In vivo inhibition of beta adrenoceptor in Wistar rat assessed as reduction in isoprenaline-induced tachycardia at 5 mg/kg, iv administered as single dose 10 mins prior to isoprenaline injection; format: functional, organism-based
Rattus norvegicus [27] = test: Hypotensive activity in normotensive Wistar rat assessed as reduction in systolic blood pressure at 1 mg/kg, iv measured over 30 mins relative to control; format: functional; design: scale not given: the % may be the effect or the level left
[28] = biological target: T1, Adrenergic receptor alpha-1 (Rattus norvegicus); test: Displacement of [3H][…]prazosin from adrenergic alpha1 receptor in Wistar rat cortex at 10^-5 M incubated for 30 mins by microbeta liquid scintillation counting analysis
Rattus norvegicus [29] = test: Hypotensive activity in normotensive Wistar rat assessed as diastolic blood pressure at 2.5 mg/kg, iv measured after 60 mins (reference value: 116.2 +/- 1.2 mmHg); format: functional
Rattus norvegicus [30] = test: Hypotensive activity in normotensive Wistar rat assessed as diastolic blood pressure at 2.5 mg/kg, iv measured after 10 mins (reference value: 116.2 +/- 1.2 mmHg); format: functional
Rattus norvegicus [31] = test: Hypotensive activity in normotensive Wistar rat assessed as reduction in systolic blood pressure at 2.5 mg/kg, iv measured after 5 to 10 mins relative to control; format: functional; design: scale not given: the % may be the effect or the level left
Rattus norvegicus [32] = test: In vivo inhibition of beta adrenoceptor in Wistar rat assessed as reduction in isoprenaline-induced tachycardia at 1 mg/kg, iv administered as single dose 10 mins prior to isoprenaline injection; format: functional, organism-based
Rattus norvegicus [33] = test: Cardiotoxicity in Wistar rat assessed as effect on heart rate at 1 mg/kg, iv measured after 15 mins (reference value: 320.6 +/- 8.1 bpm); format: toxicity, organism-based; conditions: in vivo, 0.25 h
Rattus norvegicus [34] = test: Cardiotoxicity in Wistar rat assessed as effect on QRS interval time at 1 mg/kg, iv measured after 1 min (reference value: 19.4 +/- 0.9 ms); format: toxicity, organism-based; conditions: in vivo
Blood = test: Anti-aggregative activity in Wistar rat whole blood assessed as inhibition of collagen/adrenaline-induced aggregation preincubated for 3 mins followed by collagen induction measured for 6 mins; format: functional, tissue-based

Chain of Beta-1 adrenergic receptor (P18090 whole entry): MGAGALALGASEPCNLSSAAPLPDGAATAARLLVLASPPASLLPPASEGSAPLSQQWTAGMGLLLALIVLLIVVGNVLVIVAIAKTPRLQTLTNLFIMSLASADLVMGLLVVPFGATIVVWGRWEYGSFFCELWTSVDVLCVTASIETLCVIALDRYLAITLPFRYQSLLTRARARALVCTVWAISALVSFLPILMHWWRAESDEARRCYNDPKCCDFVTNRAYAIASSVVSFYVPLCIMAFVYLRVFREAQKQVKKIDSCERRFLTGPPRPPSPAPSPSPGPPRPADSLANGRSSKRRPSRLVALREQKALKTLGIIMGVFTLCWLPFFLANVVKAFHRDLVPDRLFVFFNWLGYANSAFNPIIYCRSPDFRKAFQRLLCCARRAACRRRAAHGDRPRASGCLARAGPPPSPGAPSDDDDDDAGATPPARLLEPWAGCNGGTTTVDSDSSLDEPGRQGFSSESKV
Chain of Beta-2 adrenergic receptor (Q8K4Z4 whole entry): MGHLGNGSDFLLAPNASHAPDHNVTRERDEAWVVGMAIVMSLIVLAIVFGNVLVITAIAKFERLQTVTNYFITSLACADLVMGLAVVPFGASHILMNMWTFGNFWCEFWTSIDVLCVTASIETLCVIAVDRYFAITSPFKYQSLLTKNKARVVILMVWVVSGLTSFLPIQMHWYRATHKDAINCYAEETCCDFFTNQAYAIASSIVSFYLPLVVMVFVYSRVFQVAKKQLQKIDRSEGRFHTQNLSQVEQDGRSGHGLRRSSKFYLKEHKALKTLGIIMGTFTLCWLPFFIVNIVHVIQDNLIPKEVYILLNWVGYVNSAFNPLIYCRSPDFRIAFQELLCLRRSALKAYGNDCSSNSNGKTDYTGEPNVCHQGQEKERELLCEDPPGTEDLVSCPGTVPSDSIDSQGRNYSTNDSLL
Chain of Beta-1 adrenergic receptor (Rattus norvegicus) (P18090 whole entry, looked up): as the sequence (P18090 whole entry) above

| Structure (SMILES) | Activity (Rattus norvegicus [1]) | Activity (Rattus norvegicus [2]) | Activity (Rattus norvegicus [3]) | Time (Rattus norvegicus [4]) | Time (Rattus norvegicus [5]) | Activity (Rattus norvegicus [6]) | Activity (Rattus norvegicus [7]) | Activity (Rattus norvegicus [8]) | Activity [9] | Activity (Rattus norvegicus [10]) | Activity (Rattus norvegicus [11]) | Activity (Rattus norvegicus [12]) | Ki [13] | Activity (Rattus norvegicus [14]) | Activity (Rattus norvegicus [15]) | Activity (Rattus norvegicus [16]) | Activity (Rattus norvegicus [17]) | Activity (Rattus norvegicus [19]) | Time (Rattus norvegicus [21]) | IC50 [13] | further results |
| --- | --- | --- | --- | --- | --- | --- | --- | --- | --- | --- | --- | --- | --- | --- | --- | --- | --- | --- | --- | --- | --- |
| Cl.O=c1c2ccccc2oc2cc(OCC(O)CN3CCN(c4ccccn4)CC3)ccc12 (racemic) | 136 mmHg | 131 mmHg | 107 mmHg | 133.9 ms | 59 ms | 94.2 mmHg | 103.8 mmHg | 122.7 mmHg | inactive | 138.3 mmHg | 81 mmHg | 127.2 mmHg | 1570 nM | 107.5 mmHg | 80.3 mmHg | 100.2 mmHg | 110.3 mmHg | 114.7 mmHg | 59 ms | – | pKb [18]: 8.2; Activity [20]: inactive |
| Cl.O=c1c2ccccc2oc2c(OCC(O)CN3CCN(c4ccccn4)CC3)cccc12 (racemic) | 146.2 mmHg | 142.5 mmHg | 113.5 mmHg | 144 ms | 58.7 ms | 106.7 mmHg | 133 mmHg | 138.7 mmHg | inactive | 146.2 mmHg | 110.8 mmHg | 140 mmHg | 213 nM | 111.7 mmHg | 102.6 mmHg | 110.5 mmHg | 131.4 mmHg | 136.8 mmHg | 60.2 ms | 1420 nM | Activity (Rattus norvegicus [22]): 7 - 11%; Activity (Rattus norvegicus [23]): 146.7 mmHg; ED50 (Rattus norvegicus [24]): 4.82 mg/kg; pKb [18]: 7.52 |
| COc1ccccc1OCCNCC(O)COc1cccc2c(=O)c3ccccc3oc12.Cl (racemic) | 114.8 mmHg | 114.8 mmHg | 82.8 mmHg | 131.1 ms | 70 ms | 75.6 mmHg | 84 mmHg | 106.8 mmHg | inactive | 119.6 mmHg | 89.7 mmHg | 112.4 mmHg | 852 nM | 85.4 mmHg | 71.5 mmHg | 81.6 mmHg | 106.5 mmHg | 121.6 mmHg | 63.3 ms | 178 nM | Kb [25]: 18.1 nM; inhibition (Rattus norvegicus [26]): Active; Activity (Rattus norvegicus [27]): 6 - 13%; pKb [18]: 8.34 |
| COc1ccccc1CNCC(O)COc1cccc2c(=O)c3ccccc3oc12.Cl (racemic) | – | – | – | 139.3 ms | 65.5 ms | – | – | – | inactive | – | 107.2 mmHg | – | 10.8 nM | – | 100.6 mmHg | – | 147.7 mmHg | 149.3 mmHg | 66.7 ms | 179 nM | Kb [25]: 114 nM; inhibition (Rattus norvegicus [26]): Active |
| COc1ccc(CCNCC(O)COc2cccc3c(=O)c4ccccc4oc23)cc1OC.Cl (racemic) | – | – | – | 132.7 ms | 61.3 ms | – | – | – | inactive | – | 101.4 mmHg | – | 357 nM | – | 97.4 mmHg | – | 135.6 mmHg | 135.4 mmHg | 63.3 ms | 106 nM | Kb [25]: 41.4 nM; inhibition (Rattus norvegicus [26]): Active; Activity [28]: inactive; Activity (Rattus norvegicus [29]): 100.7 mmHg; Activity (Rattus norvegicus [30]): 101.5 mmHg; Activity (Rattus norvegicus [31]): 9 - 12% |
| CC(C)(C)NCC(O)COc1cccc2c(=O)c3ccccc3oc12.Cl (racemic) | 142.6 mmHg | 131.6 mmHg | 109.5 mmHg | – | – | 96.7 mmHg | 103.7 mmHg | 123 mmHg | inactive | 146.4 mmHg | – | 128.2 mmHg | 5.4 nM | 111 mmHg | – | 100 mmHg | – | – | – | – | Kb [25]: 0.31 nM; inhibition (Rattus norvegicus [32]): Active; Activity (Rattus norvegicus [33]): 290.6 bpm; Time (Rattus norvegicus [34]): 19.6 ms; IC50 (Blood): 82.3 µM; inhibition (Blood): Dose-dependent effect; Activity [28]: inactive; ED50 (Rattus norvegicus [24]): 1.63 mg/kg |
| COc1ccccc1CCNCC(O)COc1cccc2c(=O)c3ccccc3oc12.Cl (racemic) | 147 mmHg | 141 mmHg | 114.2 mmHg | 148.5 ms | 60.5 ms | 101.2 mmHg | 111.5 mmHg | 126.3 mmHg | inactive | 147.8 mmHg | 108.6 mmHg | 135 mmHg | 359 nM | 114.8 mmHg | 98.8 mmHg | 107.7 mmHg | 133.4 mmHg | 146.2 mmHg | 60 ms | 426 nM | Kb [25]: 21.4 nM; inhibition (Rattus norvegicus [26]): Active; Activity (Rattus norvegicus [27]): 5 - 11%; IC50 (Blood): 44.8 µM; inhibition (Blood): Dose-dependent effect; ED50 (Rattus norvegicus [24]): 2.2 mg/kg; pKb [18]: 8.28 |
